Experiments:
Format in all cases: biochemical
[1] = target: T1, human full-length EL (endothelial lipase) (Homo sapiens, UniProt Q9Y5X9); test: EL inhibition assay using cell extracts of HEK293/EL transfected cells; settings: compound 0.001-200 μM, means of three experiments
T1 construct: We have cloned the human full-length EL, LPL, HL and PL; made in house; host or cells: HEK-293, transient transfection; cell extracts used
T1 sequence (Q9Y5X9 21-500): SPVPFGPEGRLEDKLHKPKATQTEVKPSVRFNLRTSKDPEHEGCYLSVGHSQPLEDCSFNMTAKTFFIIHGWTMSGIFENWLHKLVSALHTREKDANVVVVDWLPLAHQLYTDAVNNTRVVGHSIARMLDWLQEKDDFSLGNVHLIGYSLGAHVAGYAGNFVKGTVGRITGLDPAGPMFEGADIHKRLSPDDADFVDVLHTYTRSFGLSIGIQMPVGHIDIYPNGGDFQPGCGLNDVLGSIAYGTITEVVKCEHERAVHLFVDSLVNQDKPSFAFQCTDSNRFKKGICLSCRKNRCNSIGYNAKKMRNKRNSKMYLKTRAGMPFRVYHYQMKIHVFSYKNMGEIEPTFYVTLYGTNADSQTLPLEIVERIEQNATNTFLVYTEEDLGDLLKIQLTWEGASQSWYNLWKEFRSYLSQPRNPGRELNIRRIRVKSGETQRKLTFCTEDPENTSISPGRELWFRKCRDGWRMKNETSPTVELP
Procedure: (§1) Preparation of constructs: We have cloned the human full-length EL, LPL, HL and PL. The cDNA encoding the EL, LPL, HL and PL sequence was cloned by PCR and subcloned into a mammalian expression vector containing the cytomegalovirus promoter-enhancer. The constructs were confirmed by sequence analysis.
(§2) Expression of EL, LPL, HL and PL in mammalian cells: The above constructs were used to transfect HEK-293 cells. The cells were seeded into T75 plates in a DMEM solution containing 10% Fetal Bovine Serum media and incubated overnight at 37° C. Cells were transiently transfected with various cDNA constructs using the Lipofectamine-LTX as described by the manufacturer (Invitrogen). After transfection, cells were then incubated for an additional 48 hours at 37° C. before being analyzed for expression. After 48 hours of incubation, following transfection, cells were collected for analysis by western blots for the expression of EL, LPL, HL and PL.
EL screening assay: We developed and implemented two assays (a) in assay one the HDL-C functions as a substrate for the assay. This assay measures the rate of HDL hydrolysis by EL that yields free fatty acids, which are then coupled through acyl-CoA synthetase, acyl-CoA oxidase and horseradish peroxidase to produce the fluorescent species, resorufin; (b) in assay two PED-A1, a novel fluorogenic phospholipase A1-selective substrate was used for EL measurements. […] Assay one was used for initial screening, while assay two was used for secondary screening and EL kinetics.
Characterization of the Hits: A library of compounds that modified both the urea and sulfonamide substituents on the 5-methyl furan were synthesized. The library was extensively analyzed for EL potency, and then the data was utilized to further optimize the compounds. Seven compounds were selected for potency, kinetic and selectivity confirmation.
In order to determine the Ki value, we used variable concentrations of the compound and variable substrate concentrations.

[2] = target: T2, human full-length PL (pancreatic lipase) (Homo sapiens, UniProt P16233); test: PL selectivity assay (phospholipase kit, resorufinoleate substrate); settings: even at 200 uM compound concentration
T2 construct: We have cloned the human full-length EL, LPL, HL and PL; made in house; host or cells: HEK-293, transient transfection
T2 sequence (P16233 17-465): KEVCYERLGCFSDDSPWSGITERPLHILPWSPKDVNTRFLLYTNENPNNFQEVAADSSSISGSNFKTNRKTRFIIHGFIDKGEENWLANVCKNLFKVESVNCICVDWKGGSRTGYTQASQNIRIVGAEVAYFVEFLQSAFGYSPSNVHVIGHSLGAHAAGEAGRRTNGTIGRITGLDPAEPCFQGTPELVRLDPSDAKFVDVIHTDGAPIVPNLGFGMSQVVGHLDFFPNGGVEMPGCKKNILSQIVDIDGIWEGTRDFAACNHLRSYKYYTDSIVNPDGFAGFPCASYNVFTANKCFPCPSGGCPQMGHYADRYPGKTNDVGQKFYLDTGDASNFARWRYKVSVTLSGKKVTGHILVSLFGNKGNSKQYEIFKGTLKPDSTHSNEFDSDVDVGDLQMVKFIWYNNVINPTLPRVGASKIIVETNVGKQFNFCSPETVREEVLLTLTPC
Procedure: as §1, §2
(§3) LPL, PL and HL selectivity assays: For measuring LPL, PL and HL activity, we used the commercially available phospholipase kit (MGT). The activity of the substrate, resorufinoleate is quite good for both phospholipase A1 and phospholipase A2, and therefore is ideal for LPL, PL and HL. Since the substrate is quite general for other lipases such as triacylglycerol lipases or lipoprotein lipases, we utilized our recombinant system and cell specific expression system to achieve the desired specificity. The LPL, PL and HL enzyme activity measurements were conducted using a 96-well microtiter plate. All appropriate controls were implemented.
(§4) Experiments were also performed to determine the specificity of our best compounds against the most closely related homologues, LPL, PL and HL.

[3] = target: T3, human full-length LPL (lipoprotein lipase) (Homo sapiens, UniProt P06858); test: LPL selectivity assay (phospholipase kit, resorufinoleate substrate); settings: even at 200 uM compound concentration
T3 construct: We have cloned the human full-length EL, LPL, HL and PL; made in house; host or cells: HEK-293, transient transfection
T3 sequence (P06858 28-475): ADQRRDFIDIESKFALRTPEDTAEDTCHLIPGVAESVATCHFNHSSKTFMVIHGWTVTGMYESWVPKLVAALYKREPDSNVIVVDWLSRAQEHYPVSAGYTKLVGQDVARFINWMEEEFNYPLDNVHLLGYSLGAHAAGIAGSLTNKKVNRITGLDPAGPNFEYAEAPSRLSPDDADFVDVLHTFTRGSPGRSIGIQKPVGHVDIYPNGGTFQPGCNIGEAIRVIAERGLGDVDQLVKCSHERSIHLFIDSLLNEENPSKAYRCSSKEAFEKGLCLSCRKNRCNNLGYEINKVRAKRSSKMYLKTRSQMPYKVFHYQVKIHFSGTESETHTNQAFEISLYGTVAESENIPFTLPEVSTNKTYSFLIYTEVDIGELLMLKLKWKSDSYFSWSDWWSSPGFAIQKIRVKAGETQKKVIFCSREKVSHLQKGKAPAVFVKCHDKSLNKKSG
Procedure: as §1, §2, §3, §4

[4] = target: T4, human full-length HL (hepatic lipase) (Homo sapiens, UniProt P11150); test: HL selectivity assay (phospholipase kit, resorufinoleate substrate); settings: even at 200 uM compound concentration
T4 construct: We have cloned the human full-length EL, LPL, HL and PL; made in house; host or cells: HEK-293, transient transfection
T4 sequence (P11150 23-499): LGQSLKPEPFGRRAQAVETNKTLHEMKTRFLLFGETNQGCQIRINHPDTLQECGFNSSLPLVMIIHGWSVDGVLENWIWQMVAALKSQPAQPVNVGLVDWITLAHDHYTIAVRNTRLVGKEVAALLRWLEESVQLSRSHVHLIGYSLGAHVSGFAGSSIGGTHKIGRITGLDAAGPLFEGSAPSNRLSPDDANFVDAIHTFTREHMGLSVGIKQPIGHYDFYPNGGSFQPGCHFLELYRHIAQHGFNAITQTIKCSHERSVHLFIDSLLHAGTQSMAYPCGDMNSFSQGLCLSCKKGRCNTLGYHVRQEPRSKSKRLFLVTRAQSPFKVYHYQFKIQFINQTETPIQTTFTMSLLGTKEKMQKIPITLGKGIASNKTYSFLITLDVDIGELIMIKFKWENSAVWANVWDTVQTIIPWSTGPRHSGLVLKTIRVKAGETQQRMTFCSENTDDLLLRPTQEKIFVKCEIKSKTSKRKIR
Procedure: as §1, §2, §3, §4

IC50 [1] [nM] | inhibition against PL activity [2] | inhibition against LPL activity [3] | inhibition against HL activity [4] | SMILES
62 | no inhibition | no inhibition | no inhibition | Cc1ccccc1NC(=O)Nc1cc(S(=O)(=O)N2CCC(C(F)(F)F)CC2)oc1C [SBC-140,466]
19 | no inhibition | no inhibition | no inhibition | COC1CCN(S(=O)(=O)c2cc(NC(=O)NCc3ccccc3C(F)(F)F)c(C)o2)CC1 [SBC-140,460]
79 | no inhibition | no inhibition | no inhibition | Cc1oc(S(=O)(=O)N2CCC(C(F)(F)F)CC2)cc1NC(=O)NC(c1ccccc1)C(F)(F)F (stereo not drawn) [SBC-140,472]

Source: patent publication US10259804B2, “Anti-endothelial lipase compounds and methods of using the same in the treatment and/or prevention of cardiovascular diseases” (Shifa Biomedical Corporation, priority 2014, dated 2019)
